Experimental data as given in patent publication US10543189B2, “2-acetylnaphtho[2,3-b]furan -4,9-dione for use on treating cancer” (Boston Biomedical, Inc., priority 2013, dated 2020).

Assay: Phase 1 extension study of higher strength capsule (DP2A): adverse events
Type: in vivo
Conditions: AE possibly related to BBI608
Excerpt: However, with the higher strength capsules, we observed worsening gastrointestinal adverse effects including nausea, vomiting, and diarrhea in patients.
Additional studies were run using an oral formulation of the Compound of the Invention, specifically a higher strength capsule formulation (DP2A). As described herein, the Compound of the Invention blocks cancer stem cell (CSC) self-renewal and induces cell death in CSC as well as non-stem cancer cells by inhibiting Stat3, β-catenin, and Nanog pathways, and has shown potent anti-tumor and anti-metastatic activities pre-clinically. […] The studies described herein were designed as a phase 1 extension study to evaluate a formulation designed for pivotal trials to determine pharmacokinetics (PK) in patients with advanced cancer.
On Day 1, patients received a single 500 mg dose of an oral administration formulation of the Compound of the Invention (DP1). On Day 4 and Day 8, a higher strength capsule designed for pivotal trials (DP2A) was given with fasting then fed conditions. DP2A was then administered daily until disease progression or unacceptable toxicity. Endpoints were safety, PK and preliminary anticancer activity.

## CC(=O)c1cc2c(o1)C(=O)c1ccccc1C2=O [Compound 1, 2-acetylnaphtho[2,3-b]furan-4,9-dione]
Q 4 h dosing (N = 17)
  hypophosphatemia, Grade 3, # Subjects: 1
  hypophosphatemia, Grade 3, %: 5.9%
Q 12 h dosing (N = 11)
  Abdominal cramps/pain, Grade 1 or 2, # Subjects: 5
  Abdominal cramps/pain, Grade 1 or 2, %: 45.5%
  Abdominal cramps/pain, Grade 3, # Subjects: 0
  Abdominal cramps/pain, Grade 3, %: 0.0%
  Anorexia, Grade 1 or 2, # Subjects: 1
  Anorexia, Grade 1 or 2, %: 9.1%
  Anorexia, Grade 3, # Subjects: 0
  Anorexia, Grade 3, %: 0.0%
  Bloated abdomen, Grade 1 or 2, # Subjects: 0
  Bloated abdomen, Grade 1 or 2, %: 0.0%
  Bloated abdomen, Grade 3, # Subjects: 0
  Bloated abdomen, Grade 3, %: 0.0%
  Dehydration, Grade 1 or 2, # Subjects: 0
  Dehydration, Grade 1 or 2, %: 0.0%
  Dehydration, Grade 3, # Subjects: 0
  Dehydration, Grade 3, %: 0.0%
  Depression, Grade 1 or 2, # Subjects: 1
  Depression, Grade 1 or 2, %: 9.1%
  Depression, Grade 3, # Subjects: 0
  Depression, Grade 3, %: 0.0%
  Diarrhea, Grade 1 or 2, # Subjects: 7
  Diarrhea, Grade 1 or 2, %: 63.6%
  Diarrhea, Grade 3, # Subjects: 0
  Diarrhea, Grade 3, %: 0.0%
  Dysgusia, Grade 1 or 2, # Subjects: 0
  Dysgusia, Grade 1 or 2, %: 0.0%
  Dysgusia, Grade 3, # Subjects: 0
  Dysgusia, Grade 3, %: 0.0%
  Fatigue/weakness, Grade 1 or 2, # Subjects: 4
  Fatigue/weakness, Grade 1 or 2, %: 36.4%
  Fatigue/weakness, Grade 3, # Subjects: 1
  Fatigue/weakness, Grade 3, %: 9.1%
  Flatulence, Grade 1 or 2, # Subjects: 2
  Flatulence, Grade 1 or 2, %: 18.2%
  Flatulence, Grade 3, # Subjects: 0
  Flatulence, Grade 3, %: 0.0%
  Nausea, Grade 1 or 2, # Subjects: 2
  Nausea, Grade 1 or 2, %: 18.2%
  Nausea, Grade 3, # Subjects: 0
  Nausea, Grade 3, %: 0.0%
  Rectal/Anal Burning, Grade 1 or 2, # Subjects: 1
  Rectal/Anal Burning, Grade 1 or 2, %: 9.1%
  Rectal/Anal Burning, Grade 3, # Subjects: 0
  Rectal/Anal Burning, Grade 3, %: 0.0%
  Reflux (also heartburn), Grade 1 or 2, # Subjects: 0
  Reflux (also heartburn), Grade 1 or 2, %: 0.0%
  Reflux (also heartburn), Grade 3, # Subjects: 0
  Reflux (also heartburn), Grade 3, %: 0.0%
  Urine Color Change, Grade 1 or 2, # Subjects: 0
  Urine Color Change, Grade 1 or 2, %: 0.0%
  Urine Color Change, Grade 3, # Subjects: 0
  Urine Color Change, Grade 3, %: 0.0%
  Vomiting, Grade 1 or 2, # Subjects: 1
  Vomiting, Grade 1 or 2, %: 9.1%
  Vomiting, Grade 3, # Subjects: 0
  Vomiting, Grade 3, %: 0.0%
  Weight loss, Grade 1 or 2, # Subjects: 0
  Weight loss, Grade 1 or 2, %: 0.0%
  Weight loss, Grade 3, # Subjects: 0
  Weight loss, Grade 3, %: 0.0%
  Xerostomia, Grade 1 or 2, # Subjects: 2
  Xerostomia, Grade 1 or 2, %: 18.2%
  Xerostomia, Grade 3, # Subjects: 0
  Xerostomia, Grade 3, %: 0.0%
  hypophosphatemia, Grade 1 or 2, # Subjects: 0
  hypophosphatemia, Grade 1 or 2, %: 0.0%
  hypophosphatemia, Grade 3, # Subjects: 0
  hypophosphatemia, Grade 3, %: 0.0%
